{"source": "patent US12685732B2", "about": "“Composition for improving, preventing or treating muscular disorders including sulfonamide-based compounds” (The Industry & Academic Cooperation in Chungnam National …, priority 2022, dated 2026)", "key": {"[1]": {"system": "C2C12-PHF20/YY1-promoter-GFP cell line", "assay": "HTS system: GFP (green luminescence) in PHF20-overexpressing myoblasts carrying YY1 promoter-GFP", "type": "cell-based, mouse", "conditions": "10 μM compound, 24 h, after 250 ng/ml doxycycline 24 h; FDA-approved drug library of 1670 compounds", "from_the_text": "C2C12 myoblasts, which were stable cells in which PHF20 was overexpressed, were transformed with a plasmid coexisting with a YY1 promoter and GFP, which inhibited muscle differentiation, to prepare a stable cell line. The degree of GFP signal suppression was quantified and measured, and the degree of muscle differentiation was used as a quantitative measurement index (FIG. 1).\nSpecifically, the C2C12-PHF20/YY1-promoter-GFP cell line according to Example 1 was dispensed in a 96-well plate at 0.5×10^5, cultured for 24 hours, and cells in a 70% confluent state were treated with 250 ng/ml of doxycycline for 24 hours, and then treated with each compound at a final concentration of 10 μM.\nFor fluorescence intensity, C2C12-PHF20/YY1-promoter-GFP cells were dispensed at 4×10^5 in a 6-well culture plate and cultured for 24 hours. […] Thereafter, the degree of green luminescence was confirmed using GloMax microplate readers explorer (Promega, Madison, Wisconsin, USA)."}, "[2]": {"assay": "Body weight in Velcro injured sarcopenia mouse model", "type": "in vivo", "conditions": "oral 5, 50, 500 mg/kg daily for 14 days", "from_the_text": "(§1) The left leg of an 8-week-old C57BL/6J male mouse was anesthetized with isoflurane, the entire leg was wound from the ankle with a 5 cm sports tape, and then wound and fixed with a Velcro with a width of 10 mm, and the Velcro condition was checked every day for 14 days (FIG. 16). Meanwhile, in the present disclosure, Velcro injury means that muscle damage is caused by such Velcro by winding the muscle with the Velcro so as not to move.\n(§2) In order to confirm the amount of treadmill exercise according to the dose of sulfasalazine, Group 1 (n=5) of orally administering PBS to 8-week-old C57BL/6J male mice without injury, Group 2 (n=5) of orally administering PBS to mice with Velcro injury, Group 3 (n=5) of orally administering sulfasalazine 5 mg/kg to mice with Velcro injury, Group 4 (n=5) of orally administering sulfasalazine 50 mg/kg to mice with Velcro injury, and Group 5 (n=5) of orally administering sulfasalazine 500 mg/kg to mice with Velcro injury were divided and orally administered at 10 am every day for 14 days, and the body weights were measured and the results were illustrated in FIG. 18. […]\nFor a total of 14 days, the body weights of the mice were measured, and any change in body weight was confirmed."}, "[3]": {"system": "high-fat diet CTX-induced sarcopenia mouse model", "assay": "Rota Rod balance ability in high-fat diet CTX-induced sarcopenia mouse model", "type": "in vivo", "conditions": "oral 5, 50, 500 mg/kg daily for 14 days; days 4, 8, 12; vs group injected with CTX", "description": "(§3) In order to construct a high-fat diet CTX-induced sarcopenia mouse model, for 23-week-old C57BL/6J male mice subjected to 60% HFD for 19 weeks, cardiotoxin (LATOXAN, Portes-lés-Valence, France) was dissolved at 1 mg/ml in PBS to make a high-concentration stock solution. For application to mice, the stock solution was diluted again in PBS (Hyclone Dulbecco's Phaosphate Buffer saline Cat. SH30028.02) to a final concentration of 0.03 mg/ml and used, and intramuscularly injected into both quadriceps muscles of the mouse using a 1 ml syringe (24 G) to construct the high-fat diet CTX-induced sarcopenia mouse model.\n(§4) Five groups of Group 1 of orally administering PBS to a high-fat diet mouse without injecting CTX, Group 2 of orally administering PBS to a high-fat diet mouse injected with CTX, Group 3 of orally administering sulfasalazine 5 mg/kg to the high-fat diet mouse injected with CTX, Group 4 of orally administering sulfasalazine 50 mg/kg to the high-fat diet mouse injected with CTX, and Group 5 of orally administering sulfasalazine 500 mg/kg to the high-fat diet mouse injected with CTX were divided and orally administered at 10 am every day for 14 days, and the body weights were measured and the results were shown in FIG. 13. […]"}, "[4]": {"system": "Velcro injured sarcopenia mouse model", "assay": "Treadmill exercise capacity in Velcro injured sarcopenia mouse model", "type": "in vivo", "conditions": "oral 5, 50, 500 mg/kg; days 0, 3, 6, 10, 14; after day 6 of administration", "from_the_text": "as §1, §2"}, "[5]": {"assay": "Body weight in high-fat diet CTX-induced sarcopenia mouse model", "type": "in vivo", "conditions": "oral 5, 50, 500 mg/kg daily for 14 days", "description": "as §3\nFive groups of Group 1 of orally administering PBS to a high-fat diet mouse without injecting CTX, Group 2 of orally administering PBS to a high-fat diet mouse injected with CTX, Group 3 of orally administering sulfasalazine 5 mg/kg to the high-fat diet mouse injected with CTX, Group 4 of orally administering sulfasalazine 50 mg/kg to the high-fat diet mouse injected with CTX, and Group 5 of orally administering sulfasalazine 500 mg/kg to the high-fat diet mouse injected with CTX were divided and orally administered at 10 am every day for 14 days, and the body weights were measured and the results were shown in FIG. 13."}, "aging mouse model [6]": {"system": "aging mouse model", "assay": "Grip strength in aging mouse model", "type": "in vivo", "conditions": "oral 5, 50, 500 mg/kg daily for 28 days; vs control Group 1", "description": "(§5) In order to confirm the balance ability and the grip strength recovery effect of the Rota Rod according to a dose of sulfasalazine, 50-week-old C57BL/6J male mice were divided into Group 1 of PBS, Group 2 of sulfasalazine 5 mg/kg, Group 3 of sulfasalazine 50 mg/kg, and Group 4 of sulfasalazine 500 mg/kg, and orally administered every day at 10 am for 28 days, and then the body weight was measured.\n(§6) The Rota Rod was measured on days 0, 7, 14, 21, and 28 with the animal group constructed in Group 2 under the conditions shown in Table 2 below, and the results were shown in FIG. 11 ((*) p≤0.05 vs G1). In the same animal group as the Rota Rod, the grip strength was measured on the 2 paws and 4 paws of the mouse on days 0, 9, 16, 23, and 28, and the results were shown in FIGS. 12A and 12B."}, "aging mouse model [7]": {"system": "aging mouse model", "assay": "Treadmill exercise capacity in aging mouse model", "type": "in vivo", "conditions": "oral 5, 50, 500 mpk daily for 28 days, vs PBS (G1)", "description": "Treadmill adaptation was performed randomly for 3 days under conditions of grade 0, speed 15 (cm/sec), 10 minutes, electrical stimulation […] (defined as exhaustion when electrical stimulation occurred consecutive 4 times or more), and according to the treadmill result, mice with similar ability were distributed into each group and divided into 4 groups of 8 mice per group.\n(§7) In order to confirm the treadmill exercise capacity according to a dose of sulfasalazine, the mice divided in 3-1 above were orally administered at 10:30 every day for 28 days with Group 1 of PBS (Hyclone Dulbecco's Phaosphate Buffer saline Cat. SH30028.02), Group 2 of sulfasalazine (Sigma, Cat. Nr S0883. CAS Number 599-79-1) 5 mpk, Group 3 of sulfasalazine 50 mpk, and Group 4 of sulfasalazine 500 mpk. In order to reduce an error on treadmill exercise ability, the mice were starved for 3 hours before measuring the treadmill, and then the treadmill was performed 4 times at 7-day intervals (0 days, 7 days, 14 days, and […]) according to Table 1 below."}, "[8]": {"assay": "Body weight in aging mouse model", "type": "in vivo", "conditions": "oral 5, 50, 500 mpk daily for 28 days, vs PBS", "description": "as §7\nFor a total of 28 days, the body weight of the mouse was measured, and any change in body weight was confirmed."}, "[9]": {"system": "high-fat diet CTX-induced sarcopenia mouse model", "assay": "Grip strength in high-fat diet CTX-induced sarcopenia mouse model", "type": "in vivo", "conditions": "oral 5, 50, 500 mg/kg daily for 14 days; days 5, 9, 13; vs group injected with CTX", "description": "as §3, §4"}, "aging mouse model [10]": {"system": "aging mouse model", "assay": "Rota Rod balance ability in aging mouse model", "type": "in vivo", "conditions": "oral 5, 50, 500 mg/kg daily for 28 days; days 0, 7, 14, 21, 28", "description": "as §5, §6"}}}
{"molecule": "COc1ncnc(NS(=O)(=O)c2ccc(N)cc2)c1OC", "note": "[sulfadoxin]", "values": [{"measurement": "degree of green luminescence (GFP inhibition) in screening", "setting": "[1]", "result": "effect of reducing green luminescence"}]}
{"molecule": "Nc1ccc(S(=O)(=O)Nc2ccccn2)cc1", "note": "[sulfapyridine]", "values": [{"measurement": "degree of green luminescence (GFP inhibition) in screening", "setting": "[1]", "result": "effect of reducing green luminescence"}]}
{"molecule": "Nc1ccc(S(=O)(=O)Nc2ccnn2-c2ccccc2)cc1", "note": "[sulfaphenazole]", "values": [{"measurement": "degree of green luminescence (GFP inhibition) in screening", "setting": "[1]", "result": "effect of reducing green luminescence"}]}
{"molecule": "COc1cc(NS(=O)(=O)c2ccc(N)cc2)nc(OC)n1", "note": "[sulfadimethoxine]", "values": [{"measurement": "degree of green luminescence (GFP inhibition) in screening", "setting": "[1]", "result": "effect of reducing green luminescence"}]}
{"molecule": "Cc1nnc(NS(=O)(=O)c2ccc(N)cc2)s1", "note": "[sulfamethizole]", "values": [{"measurement": "degree of green luminescence (GFP inhibition) in screening", "setting": "[1]", "result": "effect of reducing green luminescence"}]}
{"molecule": "Nc1ccc(S(=O)(=O)Nc2ncccn2)cc1", "note": "[sulfadiazine]", "values": [{"measurement": "degree of green luminescence (GFP inhibition) in screening", "setting": "[1]", "result": "effect of reducing green luminescence"}]}
{"molecule": "N=C(N)NS(=O)(=O)c1ccc(N)cc1", "note": "[sulfaguanidine]", "values": [{"measurement": "degree of green luminescence (GFP inhibition) in screening", "setting": "[1]", "result": "effect of reducing green luminescence"}]}
{"molecule": "Nc1ccc(S(N)(=O)=O)cc1", "note": "[sulfanilamide]", "values": [{"measurement": "degree of green luminescence (GFP inhibition) in screening", "setting": "[1]", "result": "effect of reducing green luminescence"}]}
{"molecule": "Nc1ccc(S(=O)(=O)Nc2nccs2)cc1", "note": "[sulfathiazole]", "values": [{"measurement": "degree of green luminescence (GFP inhibition) in screening", "setting": "[1]", "result": "effect of reducing green luminescence"}]}
{"molecule": "O=C(O)c1cc(/N=N/c2ccc(S(=O)(=O)Nc3ccccn3)cc2)ccc1O", "note": "[sulfasalazine]", "values": [{"measurement": "body weight", "setting": "[2]", "result": "no difference in body weight was observed"}, {"measurement": "balance ability on the Rota Rod", "setting": "[3]", "result": "recovery of balance ability of the mouse on the Rota Rod was improved"}, {"measurement": "treadmill running distance", "setting": "[4]", "result": "treadmill running distances were increased as the administration period was increased"}, {"measurement": "treadmill running time", "setting": "[4]", "result": "treadmill running time was increased as the administration period was increased"}, {"measurement": "body weight", "setting": "[5]", "result": "no difference in body weight was observed"}, {"measurement": "grip strength, 2 paws", "setting": "aging mouse model [6]", "result": "grip strength was improved with the increase in sulfasalazine dose"}, {"measurement": "grip strength, 4 paws", "setting": "aging mouse model [6]", "result": "grip strength was improved with the increase in sulfasalazine dose"}, {"measurement": "treadmill exercise capacity (latency to fall)", "setting": "aging mouse model [7]", "result": "the higher the sulfasalazine dose, the higher the treadmill exercise capacity"}, {"measurement": "body weight", "setting": "[8]", "result": "no difference in body weight was observed"}, {"measurement": "grip strength, 2 paws", "setting": "[9]", "result": "grip strength was improved with the increase in sulfasalazine dose"}, {"measurement": "grip strength, 4 paws", "setting": "[9]", "result": "grip strength was improved with the increase in sulfasalazine dose"}, {"measurement": "degree of green luminescence (GFP inhibition) in screening", "setting": "[1]", "result": "effect of reducing green luminescence"}, {"measurement": "balance ability on the Rota Rod", "setting": "aging mouse model [10]", "result": "recovery of balance ability of the mouse on the Rota Rod was improved"}]}
{"molecule": "COc1cnc(NS(=O)(=O)c2ccc(N)cc2)nc1", "note": "[sulfameter]", "values": [{"measurement": "degree of green luminescence (GFP inhibition) in screening", "setting": "[1]", "result": "effect of reducing green luminescence"}]}
